Data set [1] concerns VCR resistant murine leukemia (P388/VCR) cells. The experiment in a line: In vivo effect of overcoming resistance with etoposide (VP-16) in P388/VCR bearing mice (intravenous). More on the design: species or system CDF1 male mice. The settings on record: VP-16 (3 mg/kg) + compound (40 mg/kg), i.v., five days; for Effect overcoming resistance (T/V %): vs VP-16 alone; for Rate of prolongation of life (T/C %): vs non-administered control. Here is the method:
(b) Separately, groups of six CDF1 male mice were intravenously given transplants of 1.2×10^5 VCR resistant murine leukemia (P388/VCR) cells. The compound of the present invention (20 or 40 mg/kg) was dissolved in 0.01N hydrochloric acid. Etoposide (VP-16, 3 mg/kg) was dissolved in a physiological saline solution. These were administered intravenously for five days and the days of survival were found. In the same way as (a), the rate of prolongation of life with respect to the control (T/C) and the effect in overcoming the resistance to an anti-neoplastic agent (T/V) were found. In Table 6, the control is the non-administered group, VP-16 alone is the group administered VP-16 (3 mg/kg) and VP-16+Compound 5 is the group co-administered VP-16 (3 mg/kg) and Compound 5 (40 mg/kg) and so on to VP-16+Compound 16 which is the group co-administered VP-16 (3 mg/kg) and Compound 16 (40 mg/kg).

A short description of data set [2]: Acute toxicity test (a), intraperitoneal, three animals per group. The settings on record: mouse, in vivo, ip, ICR male mice, up to 7 days after administration. An excerpt: (§1) (a) Animals used: ICR male mice (Charles River Japan), 7 to 8 weeks old, were used three to a group.
(§2) Test method: The compound of the present invention was suspended in 0.5% sodium carboxymethyl cellulose(CMC-Na) containing 0.1% Tween 80. […] The survival of the animals was examined up to 7 days after administration, then the Van Der Wearder area method was used to calculate the LD50 value.

In data set [3] the test system is VCR resistant murine leukemic (P388/VCR) cells. Description: In vivo effect of overcoming resistance to vincristine in VCR resistant murine leukemia cell bearing mice (intraperitoneal). On the set-up: species or system CDF1 male mice. Particulars: VCR (100 μg/kg) + compound (100 mg/kg), i.p., 5 days; for Effect overcoming resistance (T/V %): vs VCR alone; for Rate of prolongation of life (T/C %): vs non-administered control. On the procedure: (a) 10^6 VCR resistant murine leukemic (P388/VCR) cells were transplanted intraperitoneally to groups of six CDF1 male mice. The compound of the present invention (10 or 100 mg/kg) was suspended in 0.5% sodium carboxymethyl cellulose containing 0.1% Tween 80, while the VCR (100 μg/kg) was dissolved in physiological saline. These were each administered intraperitoneally over 5 days and the mice observed to find the days of survival and the rate of prolongation of life with respect to the control (T/C). The effect in overcoming resistance to an anti-neoplastic agent (T/V) was found from the following formula:
Effect in overcoming resistance to anti-neoplastic agent (T/V%)=(Rate of prolongation of life when co-administering VCR and compound of present invention (T/C%))/(Rate of prolongation of life by VCR alone
In Table 5, "Control" is the non-administered group, VCR alone is the group administered just VCR (100 μg /kg), VCR+Compound 1 is the group co-administered VCR (100 μg /kg) and Compound 1 (100 mg/kg) and so on to VCR+Compound 14* which is the group co-administered VCR (100 μg /kg) and Compound 14 (10 mg/kg).

For data set [4], the system named is VJ-300 cells (multidrug resistant clones of KB cells). Description: In vitro suppression of proliferation of VJ-300 cells by co-administration with vincristine. Particulars: co-administered VCR and test compound (1 μg/ml), relative to VCR alone in KB = 1. Type of data set: cell-based, Human. Here is the method:
(§3) As the incubation solution, an Eagle MEM medium (made by Nissui Seiyakusha) containing 10% fetal calf serum (made by Flow Laboratories Co.) and 0.292 mg/ml L-glutamine (made by Flow Laboratories Co.) was used. The action overcoming resistance to an anti-neoplastic agent and effect in enforcing the effect of an anti-neoplastic agent obtained through co-administration of the anti-neoplastic agent doxorubicin (adriamycin, ADM) and the test compounds were tested as follows:
The test cells were suspended in the incubation medium and adjusted to a cell density of about 200 cells/ml. 2 ml portions of the cell suspension were placed in petri dishes and incubated in a carbon dioxide gas incubator (5% CO2, 95% air) at 37° C. for 24 hours. Next, predetermined concentrations of aqueous ADM solutions and dimethyl sulfoxide (DMSO) solutions of predetermined concentrations of the test compounds were added into 5 to 10 μl portions, then incubation was continued for 7 days. After the end of the incubation, the samples were fixed by methanol, Giemsa staining was performed, the number of colonies in each dish was counted, and a volume reaction curve was prepared. This was used to calculate the ADM concentration at a 50% cell survival rate (LD50) and judge the action overcoming resistance to an anti-neoplastic agent and effect in enhancing the effect of an anti-neoplastic agent.
The LD50 concentration of ADM in the ADM control group for KB cells was shown as the resistance degree "1" and the other LD50 concentrations were indexed against this to calculate the resistance degrees. In Table 2, ADM alone (control) is the group administered ADM alone, ADM+Compound 1 is the group co-administered ADM and Compound 1 (1 μg /ml) and so on down to ADM+Compound 19 which is the group co-administered ADM and Compound 19 (1 μg /ml).
A volume reaction curve was prepared and the resistance calculated. In the Tables, VCR alone (control) is the group administered VCR alone, VCR+Compound 1 is the group co-administered VCR and Compound 1(1 μg /ml) and so on down to VCR+Compound 16 which is the group co-administered VCR and Compound 16 (1 μg/ml).

Data set [5] has the same test system. Description: In vitro suppression of proliferation (colony formation) of VJ-300 cells by co-administration with doxorubicin. It is filed as cell-based, Human. The settings on record: ADM alone (Control); relative to KB = 1. Here is the method: In Vitro Test of Effect of Suppression of Proliferation of Cancer Cells by Co-Administration with Doxorubicin
as §3, with “Human epipharynx cancer derived cancer KB cells (sensitive cells) and their multidrug resistant clones VJ-300 cells (resistant cells) were used as test cells. As” for “As”
The test cells were suspended in the incubation medium and adjusted to a cell density of about 200 cells/ml. 2 ml portions of the cell suspension were placed in petri dishes and incubated in a carbon dioxide gas incubator (5% CO2, 95% air) at 37° C. for 24 hours. […] After the end of the incubation, the samples were fixed by methanol, Giemsa staining was performed, the number of colonies in each dish was counted, and a volume reaction curve was prepared. […]

Data set [6] can be described thus: Acute toxicity test (b), intraperitoneal, five mice per group. The settings on record: mouse, in vivo, ip, groups of five, 1000 mg to 250 mg/kg. Here is the method: as §1, §2
(b) Groups of five mice were tested in the same way as in (a) except that the drug was administered intraperitoneally from 1000 mg by a rate of 1/√2 until 250 mg/kg.

The structures appear in SMILES notation. Where a name gives a salt, the structure may show the parent alone.

Consider `CN1CCCC(C(=O)NN=Cc2c(-c3ccccc3)nc3sc4c(n23)CCCC4)C1` (stereo not drawn) [Compound 5, 5,6,7,8-tetrahydro-2-phenyl-3-(N-methyl-3-piperidylcarbonylaminoiminomethyl)imidazo[2,1-b]benzothiazole], for which, in data set [1], the Days of survival is 14.0 days, the “Effect overcoming resistance (T/V %)” value is reported as 125% and the “Rate of prolongation of life (T/C %)” value was found to be 136%. The same compound displayed an LD50 at 168 h in data set [2] of 604 mg/kg. In addition, in data set [3], the Days of survival worked out at 14.38 days, the “Effect overcoming resistance (T/V %)” value is reported as 130% and the “Rate of prolongation of life (T/C %)” value amounted to 138%. Moreover, the “Resistance with VCR, VJ-300 (resistance degree)” value (shortened to “Resistance with VCR”) in data set [4] (Table 3) turned out to be 1.2.

Turning to `COc1cccc2c1C(=O)c1c(O)c3c(c(O)c1C2=O)C[C@@](O)(C(=O)CO)C[C@@H]3O[C@H]1C[C@H](N)[C@H](O)[C@H](C)O1` [ADM, doxorubicin], the “Resistance at ADM, VJ-300 (resistance degree)” value in data set [5] was 46.7.

`O=C(NN=Cc1c(-c2ccc(-c3ccccc3)cc2)nc2sc3c(n12)CCCC3)c1cccnc1` [Compound 2, 5,6,7,8-tetrahydro-2-biphenyl-3-(3-pyridylcarbonylaminoiminomethyl)imidazo[2,1-b]benzothiazole] registered an LD50 at 168 h in data set [2] of at least 2000 mg/kg. In data set [3], the Days of survival was determined as 12.67 days, the “Effect overcoming resistance (T/V %)” value was found to be 114% and the “Rate of prolongation of life (T/C %)” value turned out to be 121%. In data set [4] (Table 3), the “Resistance with VCR” value stood at 1.6.

Consider `CCCN1CCCC(C(=O)NN=Cc2c(-c3ccccc3)nc3sc4c(n23)CCCC4)C1` (stereo not drawn) [Compound 12, 5,6,7,8-tetrahydro-2-phenyl-3-[N-propyl-3-piperidylcarbonylaminoiminomethyl]imidazo[2,1-b]benzothiazole hydrochloride], for which, in data set [6], the LD50 at 168 h is 592 mg/kg. For the same compound, in data set [1], the Days of survival came to 13.2 days, the “Effect overcoming resistance (T/V %)” value turned out to be 118% and the “Rate of prolongation of life (T/C %)” value is on record as 128%. Also, in data set [4] (Table 4), the “Resistance with VCR” value is given as 1.3.

In data set [6], `CN1CCCC(C(=O)NN=Cc2c(-c3ccccc3)nc3sc4ccccc4n23)C1` (stereo not drawn) [Compound 15, 2-phenyl-3-[N-methyl-3-piperidylcarbonylaminoiminomethyl]imidazo[2,1-b]benzothiazole hydrochloride] had a median lethal dose (LD50) at 168 h of at least 1000 mg/kg. In data set [1], the Days of survival was 13.0 days, the “Effect overcoming resistance (T/V %)” value was found to be 116% and the “Rate of prolongation of life (T/C %)” value worked out at 126%. Also, in data set [4] (Table 4), the “Resistance with VCR” value stood at 3.1.
